Source: patent US7786141B2 (Vertex Pharmaceuticals Incorporated, priority 2004, dated 2010)

Key:
M1 muscarinic receptor = molecular target: T1, M1 muscarinic receptor (Homo sapiens, UniProt P11229); assay: Functional mobilization of intracellular calcium (FLIPR) in M1-CHO cells; format: cell-based; settings: M1 receptor, calcium mobilization; for Emax: read-out: M1 Efficacy
T1 construct: expressed in transfected cells; host or cells: CHO (M1-CHO)
T1 sequence (P11229 1-460): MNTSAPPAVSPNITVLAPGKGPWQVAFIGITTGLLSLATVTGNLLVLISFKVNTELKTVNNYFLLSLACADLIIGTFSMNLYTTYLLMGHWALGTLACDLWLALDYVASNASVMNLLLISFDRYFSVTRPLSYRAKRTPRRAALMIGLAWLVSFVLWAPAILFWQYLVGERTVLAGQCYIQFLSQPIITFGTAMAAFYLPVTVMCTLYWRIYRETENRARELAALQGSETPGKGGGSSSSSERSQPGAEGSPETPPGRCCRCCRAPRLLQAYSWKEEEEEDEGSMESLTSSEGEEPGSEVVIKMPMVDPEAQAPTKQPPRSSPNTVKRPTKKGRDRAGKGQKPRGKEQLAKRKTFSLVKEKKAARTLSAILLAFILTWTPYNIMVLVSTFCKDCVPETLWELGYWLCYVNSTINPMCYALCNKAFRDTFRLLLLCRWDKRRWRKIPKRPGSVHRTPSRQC
Summary of the method: (§1)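 Steps: seed M1- or M4-CHO cells 18-24 hrs ahead; load calcium dye with 1 mM probenecid; add test compound (0.5% DMSO final), either alone for agonism or 15 min before EC80 carbachol for inhibition; record FLIPR fluorescence for 60 sec.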

M4 muscarinic receptor = molecular target: T2, M4 muscarinic receptor (Homo sapiens, UniProt P08173); assay: Functional mobilization of intracellular calcium (FLIPR) in M4-CHO cells; format: cell-based; settings: M4 receptor, calcium mobilization; for Emax: read-out: M4 Efficacy
T2 construct: expressed in transfected cells; host or cells: CHO (M4-CHO)
T2 sequence (P08173 1-479): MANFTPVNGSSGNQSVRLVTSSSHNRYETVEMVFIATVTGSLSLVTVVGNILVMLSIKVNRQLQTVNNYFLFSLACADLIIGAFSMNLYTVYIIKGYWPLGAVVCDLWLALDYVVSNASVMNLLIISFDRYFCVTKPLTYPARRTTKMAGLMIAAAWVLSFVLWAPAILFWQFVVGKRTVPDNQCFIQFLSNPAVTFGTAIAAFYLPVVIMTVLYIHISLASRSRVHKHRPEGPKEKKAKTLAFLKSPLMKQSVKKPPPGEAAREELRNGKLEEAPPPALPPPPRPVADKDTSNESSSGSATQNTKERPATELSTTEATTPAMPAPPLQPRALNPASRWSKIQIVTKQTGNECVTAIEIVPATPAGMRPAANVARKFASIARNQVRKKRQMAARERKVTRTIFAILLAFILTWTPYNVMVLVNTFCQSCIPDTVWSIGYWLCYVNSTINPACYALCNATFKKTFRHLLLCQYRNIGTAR
Summary of the method: as §1

Row | SMILES | M1 Activity (M1 muscarinic receptor) | Emax (M1 muscarinic receptor) | M4 Activity (M4 muscarinic receptor) | Emax (M4 muscarinic receptor) | M1 Efficacy (M1 muscarinic receptor) | M4 Efficacy (M4 muscarinic receptor)
1 | Clc1ccc2c(c1)C1(CCO2)CCN(C[C@@H]2C[C@H]3C=C[C@H]2C3)CC1 [compound 164] | xx (activity was measured to be between 0.1 μM and 1.0 μM) | > 85% | x (activity was measured to be greater than 1.0 μM) | > 85% |  | 
2 | CCOC(=O)N1CCC(N2CCC3(CC2)CN(C(C)=O)c2ccc(-c4ccsc4)cc23)CC1 [compound 165] | x (activity was measured to be greater than 1.0 μM) | 65 to 85% | x (activity was measured to be greater than 1.0 μM) | > 85% |  | 
3 | CC(C)OC(=O)N1C2CCC1CC(N1CCC3(CC1)CN(C(=O)OC1CCC1)c1ccc(F)cc13)C2 (centres unmarked) [compound 166] | xxx (activity was measured to be less than 0.1 μM) | > 85% | x (activity was measured to be greater than 1.0 μM) | > 85% |  | 
4 | CCOC(=O)N1C2CCC1CC(N1CCC3(CC1)CN(C(=O)OC)c1ccc(F)cc13)C2 (centres unmarked) [compound 167] | xxx (activity was measured to be less than 0.1 μM) | 65 to 85% | xx (activity was measured to be between 0.1 μM and 1.0 μM) | > 85% |  | 
5 | CC(=O)N1CC2(CCN(C3CCCN(C(=O)OCCF)CC3)CC2)c2cc(F)ccc21 (centres unmarked) [compound 168] | xx (activity was measured to be between 0.1 μM and 1.0 μM) |  | xx (activity was measured to be between 0.1 μM and 1.0 μM) | > 85% |  | 
6 | CCOC(=O)N1CCC(N2CCC3(CC2)CN(C(=O)N(C)c2ccccc2)c2ccc(F)cc23)CC1 [compound 169] | xxx (activity was measured to be less than 0.1 μM) | 65 to 85% | x (activity was measured to be greater than 1.0 μM) | > 85% |  | 
7 | CC(C)OC(=O)N1C2CCC1CC(N1CCC3(CC1)CN(S(C)(=O)=O)c1ccc(F)cc13)C2 (centres unmarked) [compound 170] | xx (activity was measured to be between 0.1 μM and 1.0 μM) | 65 to 85% | x (activity was measured to be greater than 1.0 μM) | > 85% |  | 
8 | CC(=O)N[C@@H]1CC2(CCN([C@H]3C[C@@H]4CC[C@H]3C4)CC2)c2ccccc21 [compound 171] | xx (activity was measured to be between 0.1 μM and 1.0 μM) | > 85% | x (activity was measured to be greater than 1.0 μM) | 65 to 85% |  | 
9 | CC(=O)N1CC2(CCN(C3CCN(C(=O)OCCF)CC3)CC2)c2cc(F)ccc21 [compound 172] | x (activity was measured to be greater than 1.0 μM) | > 85% | x (activity was measured to be greater than 1.0 μM) | 65 to 85% |  | 
10 | CCOC(=O)N1CCC(N2CCC3(CC2)CN(C(=O)OC)c2ccc(F)cc23)CC1 [compound 173] | xxx (activity was measured to be less than 0.1 μM) | 65 to 85% | xx (activity was measured to be between 0.1 μM and 1.0 μM) | > 85% |  | 
11 | CC(=O)N1CC2(CCN(C3CC4CCC(C3)N4C(=O)OC3CCC3)CC2)c2cc(F)ccc21 (centres unmarked) [compound 174] | xxx (activity was measured to be less than 0.1 μM) | > 85% | x (activity was measured to be greater than 1.0 μM) | 65 to 85% |  | 
12 | Fc1ccc2c(c1)C1(CCN([C@@H]3C[C@@H]4CC[C@H]3C4)CC1)CO2 [compound 175] | xxx (activity was measured to be less than 0.1 μM) | 65 to 85% | xx (activity was measured to be between 0.1 μM and 1.0 μM) | 65 to 85% |  | 
13 | CCOC(=O)N1CCC(CN2CCC3(CC2)COc2ccc(Cl)cc23)CC1 [compound 176] | xx (activity was measured to be between 0.1 μM and 1.0 μM) | > 85% | xx (activity was measured to be between 0.1 μM and 1.0 μM) | 65 to 85% |  | 
14 | CCOC(=O)N1CCC(N2CCC3(CC2)CN(C(C)=O)c2ccc(-c4ccc(S(C)(=O)=O)cc4)cc23)CC1 [compound 177] | xxx (activity was measured to be less than 0.1 μM) | 65 to 85% | xx (activity was measured to be between 0.1 μM and 1.0 μM) | 65 to 85% |  | 
15 | Clc1ccc2c(c1)C1(CCO2)CCN(C2CCOCC2)CC1 [compound 178] | xx (activity was measured to be between 0.1 μM and 1.0 μM) | > 85% | x (activity was measured to be greater than 1.0 μM) | 65 to 85% |  | 
16 | CCOC(=O)N1C2CCC1CC(N1CCC3(CC1)CN(C(=O)C1CCC1)c1ccc(F)cc13)C2 (centres unmarked) [compound 179] | xx (activity was measured to be between 0.1 μM and 1.0 μM) | > 85% | x (activity was measured to be greater than 1.0 μM) | 65 to 85% |  | 
17 | CC(=O)NC1CC2(CCN(CC3CC4C=CC3C4)CC2)c2ccccc21 (centres unmarked) [compound 180] | xxx (activity was measured to be less than 0.1 μM) | 65 to 85% | xxx (activity was measured to be less than 0.1 μM) | 65 to 85% |  | 
18 | Clc1ccc2c(c1)C1(CCN([C@H]3C[C@@H]4CC[C@H]3C4)CC1)CO2 [compound 181] | xx (activity was measured to be between 0.1 μM and 1.0 μM) | 65 to 85% | x (activity was measured to be greater than 1.0 μM) | 65 to 85% |  | 
19 | COC(=O)N1CCC(CN2CCC3(CC2)C[C@H](NC(C)=O)c2ccccc23)CC1 [compound 182] | x (activity was measured to be greater than 1.0 μM) | 65 to 85% | x (activity was measured to be greater than 1.0 μM) | 65 to 85% |  | 
20 | Fc1ccc2c(c1)C1(CCN(CC3CC4C=CC3C4)CC1)CN2 (centres unmarked) [compound 183] | xx (activity was measured to be between 0.1 μM and 1.0 μM) | 65 to 85% | x (activity was measured to be greater than 1.0 μM) | 65 to 85% |  | 
21 | CC(=O)N[C@H]1CC2(CCN(CC3CCCCC3)CC2)c2ccccc21 [compound 184] | xx (activity was measured to be between 0.1 μM and 1.0 μM) | > 85% | x (activity was measured to be greater than 1.0 μM) | 65 to 85% |  | 
22 | CC(=O)NC1CC2(CCN(CC3CC4C=CC3C4)CC2)c2ccccc21 (centres unmarked) [compound 185] | x (activity was measured to be greater than 1.0 μM) |  | x (activity was measured to be greater than 1.0 μM) |  | xx (efficacy was calculated to be between 85% and 65%) | xx (efficacy was calculated to be between 85% and 65%)
23 | O=C(OCC(F)F)N1C2CCC1CC(N1CCC3(CC1)COc1ccc(F)cc13)C2 (centres unmarked) [compound 186] | xxx (activity was measured to be less than 0.1 μM) | > 85% | x (activity was measured to be greater than 1.0 μM) | 65 to 85% |  | 
24 | CC(=O)N1CC2(CCN(CC3CCCC3)CC2)c2cc(F)ccc21 [compound 187] | xx (activity was measured to be between 0.1 μM and 1.0 μM) | 65 to 85% | x (activity was measured to be greater than 1.0 μM) | 65 to 85% |  | 
